In ChEMBL document CHEMBL3994653, “Parallel fluorescent probe synthesis based on the large-scale preparation of BODIPY FL propionic acid” (Bioorg Med Chem Lett, 2017):

These molecules were tested against T1, Steroid hormone receptor ERR1 (Homo sapiens, UniProt P11474) (assay: Inverse agonist activity at GAL4-fused human ERRalpha expressed in HEK293 cells assessed as inhibition of transcriptional activity after 20 hrs by luciferase reporter gene assay).
T1 sequence (P11474 whole entry): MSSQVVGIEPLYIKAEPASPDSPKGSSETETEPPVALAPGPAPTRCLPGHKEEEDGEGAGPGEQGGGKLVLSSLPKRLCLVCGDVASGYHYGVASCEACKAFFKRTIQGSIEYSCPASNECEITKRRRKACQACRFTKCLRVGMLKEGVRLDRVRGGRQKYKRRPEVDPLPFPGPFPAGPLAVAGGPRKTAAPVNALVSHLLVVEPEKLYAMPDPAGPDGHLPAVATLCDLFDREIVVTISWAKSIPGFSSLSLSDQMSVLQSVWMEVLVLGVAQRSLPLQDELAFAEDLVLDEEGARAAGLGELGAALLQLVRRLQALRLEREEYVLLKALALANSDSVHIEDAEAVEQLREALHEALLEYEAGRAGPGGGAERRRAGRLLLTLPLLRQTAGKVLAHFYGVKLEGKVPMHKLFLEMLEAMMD
Assay type: cell-based

First: CC(=O)c1ccc(N2CCN(C(=O)c3cc4c(C)nn(Cc5cccc(OCc6ccc(CNC(=O)CCC7=[N+]8C(=Cc9c(C)cc(C)n9[B-]8(F)F)C=C7)cc6)c5)c4s3)C[C@H]2C)nc1
Second: CC(=O)c1ccc(N2CCN(C(=O)c3cc4c(C)nn(Cc5cccc(OCCNC(=O)CCC6=[N+]7C(=Cc8c(C)cc(C)n8[B-]7(F)F)C=C6)c5)c4s3)C[C@H]2C)nc1
The IC50 of the first is 3.8-fold lower: 170 nM for the first, 650 nM for the second. The first is the more potent here.

Going from `CC(=O)c1ccc(N2CCN(C(=O)c3cc4c(C)nn(Cc5cccc(OCCCCCNC(=O)CCC6=[N+]7C(=Cc8c(C)cc(C)n8[B-]7(F)F)C=C6)c5)c4s3)C[C@H]2C)nc1` to `CC(=O)c1ccc(N2CCN(C(=O)c3cc4c(C)nn(Cc5cccc(OCCCCNC(=O)CCC6=[N+]7C(=Cc8c(C)cc(C)n8[B-]7(F)F)C=C6)c5)c4s3)C[C@H]2C)nc1`, the IC50 rises from 80 nM to 170 nM (2.1-fold). The first is the more potent here.

Compared with `CC(=O)c1ccc(N2CCN(C(=O)c3cc4c(C)nn(Cc5cccc(OCC6CCN(C(=O)CCC7=[N+]8C(=Cc9c(C)cc(C)n9[B-]8(F)F)C=C7)C6)c5)c4s3)C[C@H]2C)nc1` (some centres not stated), `CC(=O)c1ccc(N2CCN(C(=O)c3cc4c(C)nn(Cc5cccc(OCC6CCN(C(=O)CCC7=[N+]8C(=Cc9c(C)cc(C)n9[B-]8(F)F)C=C7)CC6)c5)c4s3)C[C@H]2C)nc1` is 3.7-fold lower in IC50: 770 nM for the first, 210 nM for the second. The second is the more potent here.

Compared with `CC(=O)c1ccc(N2CCN(C(=O)c3cc4c(C)nn(Cc5cccc(OCCCNC(=O)CCC6=[N+]7C(=Cc8c(C)cc(C)n8[B-]7(F)F)C=C6)c5)c4s3)C[C@H]2C)nc1`, `CC(=O)c1ccc(N2CCN(C(=O)c3cc4c(C)nn(Cc5cccc(OCCOCCNC(=O)CCC6=[N+]7C(=Cc8c(C)cc(C)n8[B-]7(F)F)C=C6)c5)c4s3)C[C@H]2C)nc1` is 1.8-fold lower in IC50: 490 nM for the first, 280 nM for the second.

`CC(=O)c1ccc(N2CCN(C(=O)c3cc4c(C)nn(Cc5cccc(OCCOCCOCCOCCNC(=O)CCC6=[N+]7C(=Cc8c(C)cc(C)n8[B-]7(F)F)C=C6)c5)c4s3)C[C@H]2C)nc1` and `CC(=O)c1ccc(N2CCN(C(=O)c3cc4c(C)nn(Cc5cccc(OCCOCCOCCNC(=O)CCC6=[N+]7C(=Cc8c(C)cc(C)n8[B-]7(F)F)C=C6)c5)c4s3)C[C@H]2C)nc1` are within 1.5-fold of each other in IC50: 570 nM for the first, 390 nM for the second.

Going from `COCCOc1cccc(Cn2nc(C)c3cc(C(=O)N4CCN(c5ccc(C(C)=O)cn5)[C@H](C)C4)sc32)c1` to `CC(=O)c1ccc(N2CCN(C(=O)c3cc4c(C)nn(Cc5cccc(OCC6CN(C(=O)CCC7=[N+]8C(=Cc9c(C)cc(C)n9[B-]8(F)F)C=C7)CCO6)c5)c4s3)C[C@H]2C)nc1` (some centres not stated), the IC50 rises from 22 nM to greater than 1000 nM.
